Assay: Log P by HPLC on reversed phase columns (EEC directive 79/831 Annex V.A8)
Assay type: physicochemical
Details: not given
Protocol: Measurement of Log P values was performed according to EEC directive 79/831 Annex V.A8 by HPLC (High Performance Liquid Chromatography) on reversed phase columns with the following methods: • ^[a]
If more than one Log P value is available within the same method, all the values are given and separated by “+”.
Lambda-max-values were determined using UV-spectra from 200 nm to 400 nm and the peak values of the chromatographic signals.

**Q.** For `OC(Cc1ccnc(Cl)c1)(Cn1cncn1)c1ccccc1` (stereo not drawn) [Example I-37], which LogP is on record?
**A.** 1.60^[a]

**Q.** For `OC(Cc1cc(Cl)ncc1F)(Cn1cncn1)c1ccccc1` (stereo not drawn) [Example I-48], which LogP is on record?
**A.** 1.86^[a]

**Q.** Which LogP does the source give for `OC(Cc1ccncc1Cl)(Cn1cncn1)c1ccc(Cl)cc1Cl` (stereo not drawn) [Example I-42] here?
**A.** 2.38^[a]

**Q.** For `Fc1cc(Cl)ccc1C1(Cc2cccnc2Cl)CO1` (stereo not drawn) [XII-1, 2-chloro-3-[[2-(4-chloro-2-fluoro-phenyl)oxiran-2-yl]methyl]pyridine], which chromatographic logP is on record?
**A.** 3.31

**Q.** Which LogP does the source give for `OC(Cc1ccncc1F)(Cn1cncn1)c1ccc(F)cc1F` (stereo not drawn) [Example I-43] here?
**A.** 1.47^[a]

**Q.** With `OC(Cc1ccnc(Cl)c1F)(Cn1cncn1)c1ccc(F)cc1` (stereo not drawn) [Example I-23] as the compound, how does the LogP read?
**A.** 1.91^[a]

**Q.** For `OC(Cc1cc(F)ncc1Cl)(Cn1cncn1)c1ccc(Cl)cc1` (stereo not drawn) [Example I-28], which LogP is on record?
**A.** 2.43^[a]

**Q.** For `OC(Cc1ccncc1F)(Cn1cncn1)c1ccc(Oc2ccc(F)cc2F)cc1` (stereo not drawn) [Example I-20], which LogP is on record?
**A.** 2.27^[a]

**Q.** For `OC(Cc1ccnc(Cl)c1)(Cn1cncn1)c1ccc(F)cc1F` (stereo not drawn) [Example I-44], which LogP is on record?
**A.** 1.86^[a]

**Q.** Which chromatographic logP does the source give for `OC(Cc1cccnc1Cl)(Cn1cncn1)c1ccc(Cl)cc1F` (stereo not drawn) [Example I-29, 2-(4-chloro-2-fluoro-phenyl)-1-(2-chloro-3-pyridyl)-3-(1,2,4-triazol-1-yl)propan-2-ol] here?
**A.** 2.15

**Q.** For `OC(Cc1ccnc(Cl)c1F)(Cn1cncn1)c1ccc(F)cc1F` (stereo not drawn) [Example I-08, 1-(2-chloro-3-fluoro-4-pyridyl)-2-(2,4-difluorophenyl)-3-(1,2,4-triazol-1-yl)propan-2-ol], which chromatographic logP is on record?
**A.** 2.14

**Q.** For `OC(Cc1ccnc(Cl)c1F)(Cn1cncn1)c1ccc(F)cc1F` (single isomer, unassigned) [Example I-55], which LogP is on record?
**A.** 2.21^[a]

**Q.** With `OC(Cc1ccnc(Cl)c1F)(Cn1cncn1)c1ccccc1Cl` (stereo not drawn) [Example I-07] as the compound, how does the LogP read?
**A.** 2.27^[a]

Same assay, conditions: Table 1, formula (I); method [a]: LC-UV, acidic range, 0.1% formic acid in water and acetonitrile

**Q.** For `OC(Cc1cc(F)ncc1Cl)(Cn1cncn1)c1ccc(-c2ccccc2)cc1` (stereo not drawn) [Example I-27], which LogP is on record?
**A.** 3.02^[a]

Same assay, conditions: Table 2, epoxides of formula (XII); method [a]: LC-UV, acidic range, 0.1% formic acid in water and acetonitrile

**Q.** For `Fc1ccc(C2(Cc3cc(Cl)ncc3F)CO2)c(F)c1` (stereo not drawn) [XII-20], which LogP is on record?
**A.** 3.24^[a]

**Q.** Which LogP does the source give for `Fc1cnccc1CC1(c2ccc(Cl)cc2)CO1` (stereo not drawn) [XII-2] here?
**A.** 2.65^[a]

**Q.** With `Clc1cnccc1CC1(c2ccc(Oc3ccccc3)cc2)CO1` (stereo not drawn) [XII-32] as the compound, how does the LogP read?
**A.** 3.80^[a]

**Q.** With `Clc1cnccc1CC1(c2ccc(-c3ccccc3)cc2)CO1` (stereo not drawn) [XII-28] as the compound, how does the LogP read?
**A.** 3.85^[a]

**Q.** With `Fc1cccc(F)c1C1(Cc2ccncc2Cl)CO1` (stereo not drawn) [XII-66] as the compound, how does the LogP read?
**A.** 2.50^[a]

**Q.** For `Clc1ccccc1COc1cccc(C2(Cc3ccncc3Cl)CO2)c1` (racemic) [XII-63], which LogP is on record?
**A.** 4.30^[a]

**Q.** With `Fc1ccc(C2(Cc3ccncc3F)CO2)c(F)c1` (stereo not drawn) [XII-6] as the compound, how does the LogP read?
**A.** 2.38^[a]

**Q.** For `Fc1ccc(Oc2ccc(C3(Cc4ccnc(Cl)c4F)CO3)cc2)c(F)c1` (racemic) [XII-44], which LogP is on record?
**A.** 4.20^[a]

**Q.** With `Fc1ccc(Oc2ccc(C3(Cc4ccncc4F)CO3)cc2)c(F)c1` (stereo not drawn) [XII-5] as the compound, how does the LogP read?
**A.** 3.37^[a]

**Q.** Which LogP does the source give for `CC(C)(C)c1noc(-c2ccc(C3(Cc4ccncc4Cl)CO3)cc2)n1` (stereo not drawn) [XII-65] here?
**A.** 4.25^[a]

**Q.** For `Clc1ccc(C2(Cc3ccncc3Cl)CO2)cc1` (stereo not drawn) [XII-30], which LogP is on record?
**A.** 3.15^[a]

**Q.** Which LogP does the source give for `Clc1cc(CC2(c3ccc(Oc4ccccc4)cc3)CO2)ccn1` (stereo not drawn) [XII-9] here?
**A.** 3.37^[a]

**Q.** Which LogP does the source give for `Fc1ccc(Oc2ccc(C3(Cc4cc(Cl)ncc4F)CO3)cc2)c(F)c1` (stereo not drawn) [XII-21] here?
**A.** 4.17^[a]

**Q.** Which LogP does the source give for `Clc1ccccc1C1(Cc2c(Cl)cncc2Cl)CO1` (racemic) [XII-59] here?
**A.** 4.04^[a]

**Q.** For `Fc1ccc(C2(Cc3ccncc3F)CO2)cc1` (stereo not drawn) [XII-4], which LogP is on record?
**A.** 2.23^[a]

**Q.** Which LogP does the source give for `Fc1cnc(Cl)cc1CC1(c2ccc(-c3ccccc3)cc2)CO1` (stereo not drawn) [XII-22] here?
**A.** 4.28^[a]

— patent US20180339976A1, “NOVEL TRIAZOLE DERIVATIVES” (priority 2015, published 2018)
